# Reference: patent US20130152233A1, “5-FLUOROCYTOSINE AS A SEED TREATMENT AGENT TO CONTROL PLANT DISEASE” (Dow AgroSciences LLC, priority 2011, published 2013)
# Tested on: Mycosphaerella graminicola; anamorph: Septoria tritici; Bayer code SEPTTR
# Experiment: Fungicidal activity as a seed treatment for leaf blotch of wheat (SEPTTR), treated 'Yuma' wheat seeds
# Assay type: in vivo
# Method: Evaluation of Fungicidal Activity as a Seed Treatment for Leaf Blotch of Wheat (Mycosphaerella graminicola; anamorph: Septoria tritici; Bayer code […]) Seeds of wheat variety 'Yuma' were treated with a 1% weight-to-volume (w/v) solution of 5-fluorocytosine in water at rates of 16.5, 5.5, 1.8, and 0 grams of active ingredient per 100 kilograms (g ai/100 kg) of seeds. A red dye and a polymer blend were included in the formulation as inert ingredients. Seeds were allowed to dry thoroughly and were sown 3 days (trial 1) or 5 weeks (trials 2 and 3) after treatment. Seeds (10-12 seeds/pot) were planted in 4 square inch pots containing 50% mineral soil/50% soil-less Metro mix. Eleven-day-old seedlings were inoculated with an aqueous spore suspension of Septoria tritici, and 6-10 pots of plants were inoculated for each fungicide rate. After inoculation, plants were kept in 100% relative humidity three days to allow establishment of infection. The plants were then transferred to a greenhouse until disease developed. When disease on untreated plants was fully expressed , disease severities on treated plants were assessed. […] Trial 1 was the average of 10 pots of plants; Trial 2 was the average of 6 pots of plants; and Trial 3 was the average of 6 pots of plants placed in weigh boats in order to prevent possible loss of the 5-fluorocytosine from soil leaching. The following tables include data showing the activity of 5-fluorocytosine when evaluated in these experiments. The effectiveness of 5-fluorocytosine in controlling disease was determined by assessing the severity of disease on treated plants, then converting the severity to percent control based on the level of disease on untreated, inoculated plants.
smiles,measurement,setting,value
Nc1nc(=O)[nH]cc1F [5-fluorocytosine],% Disease control (SEPTTR),"Trial 1, 1.8 g ai/100 kg seeds, sown 3 days after treatment, average of 10 pots",D (1-25)
same,% Disease control (SEPTTR),"Trial 1, 5.5 g ai/100 kg seeds, sown 3 days after treatment, average of 10 pots",C (26-50)
same,% Disease control (SEPTTR),"Trial 1, 16.5 g ai/100 kg seeds, sown 3 days after treatment, average of 10 pots",A (76-100)
same,% Disease control (SEPTTR),"Trial 2, 1.8 g ai/100 kg seeds, sown 5 weeks after treatment, average of 6 pots",C (26-50)
same,% Disease control (SEPTTR),"Trial 2, 5.5 g ai/100 kg seeds, sown 5 weeks after treatment, average of 6 pots",A (76-100)
same,% Disease control (SEPTTR),"Trial 2, 16.5 g ai/100 kg seeds, sown 5 weeks after treatment, average of 6 pots",A (76-100)
same,% Disease control (SEPTTR),"Trial 3, 1.8 g ai/100 kg seeds, sown 5 weeks after treatment, 6 pots in weigh boats",C (26-50)
same,% Disease control (SEPTTR),"Trial 3, 5.5 g ai/100 kg seeds, sown 5 weeks after treatment, 6 pots in weigh boats",A (76-100)
same,% Disease control (SEPTTR),"Trial 3, 16.5 g ai/100 kg seeds, sown 5 weeks after treatment, 6 pots in weigh boats",A (76-100)
same,control of SEPTTR (in words),test rate of 16.5 g ai/100 kg seeds,significant level of control
